Experimental data taken from PubChem BioAssay AID330 (DTP/NCI, 2004).
Where “and” joins values, the source holds several entries; their conditions need not be identical. Identical values can stand only once. Inconclusive results and toxic doses are left out.

Test system: P388 leukemia ip, CD2F1 mice, survival T/C
Test: NCI In Vivo Anticancer Drug Screen. Data for tumor model P388 Leukemia (intraperitoneal) in CD2F1 (CDF1) mice
Details: endpoint: median survival time, higher = longer survival
Summary of the method: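 Mice carrying the transplanted tumor received test compound or vehicle. Survival was recorded in each group, and the value is the treated-group measurement divided by that of the vehicle-treated control group.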

[1] = dose: 60.0 mg/kg/injection, schedule: Q01DX005 (ip), vehicle: saline with Tween-80
[2] = dose: 120.0 mg/kg/injection, schedule: Q01DX005 (ip), vehicle: saline with Tween-80
[3] = dose: 50.0 mg/kg/injection, schedule: Q01DX005 (ip), vehicle: saline with Tween-80
[4] = dose: 50.0 mg/kg/injection, schedule: Q01DX009 (ip), vehicle: saline
[5] = dose: 100.0 mg/kg/injection, schedule: Q01DX009 (ip), vehicle: saline
[6] = dose: 200.0 mg/kg/injection, schedule: Q01DX009 (ip), vehicle: saline
[7] = dose: 60.0 mg/kg/injection, schedule: Q01DX005 (ip), vehicle: Klucel (hydroxypropylcellulose) (HPC)
[8] = dose: 120.0 mg/kg/injection, schedule: Q01DX005 (ip), vehicle: Klucel (hydroxypropylcellulose) (HPC)
[9] = dose: 240.0 mg/kg/injection, schedule: Q01DX005 (ip), vehicle: Klucel (hydroxypropylcellulose) (HPC)
[10] = dose: 50.0 mg/kg/injection, schedule: Q01DX005 (ip), vehicle: Klucel (hydroxypropylcellulose) (HPC)
[11] = dose: 100.0 mg/kg/injection, schedule: Q01DX005 (ip), vehicle: Klucel (hydroxypropylcellulose) (HPC)
[12] = dose: 200.0 mg/kg/injection, schedule: Q01DX005 (ip), vehicle: Klucel (hydroxypropylcellulose) (HPC)
[13] = dose: 50.0 mg/kg/injection, schedule: Q04DX003 (ip), vehicle: saline with Tween-80
[14] = dose: 100.0 mg/kg/injection, schedule: Q01DX005 (ip), vehicle: saline with Tween-80
[15] = dose: 100.0 mg/kg/injection, schedule: Q04DX003 (ip), vehicle: saline with Tween-80
[16] = dose: 200.0 mg/kg/injection, schedule: Q01DX005 (ip), vehicle: saline with Tween-80
[17] = dose: 50.0 mg/kg/injection, schedule: Q01DX009 (ip), vehicle: saline with Tween-80
[18] = dose: 100.0 mg/kg/injection, schedule: Q01DX009 (ip), vehicle: saline with Tween-80
[19] = dose: 200.0 mg/kg/injection, schedule: Q01DX009 (ip), vehicle: saline with Tween-80

C1=C(c2ccccc2)Oc2ccccc2[P+]1(c1ccccc1)c1ccccc1
T/C (dose: 0.78 mg/kg/injection, schedule: Q01DX005 (ip), vehicle: Klucel (hydroxypropylcellulose) (HPC)): 100 % of control | T/C (dose: 1.56 mg/kg/injection, schedule: Q01DX005 (ip), vehicle: Klucel (hydroxypropylcellulose) (HPC)): 109 % of control | T/C (dose: 3.12 mg/kg/injection, schedule: Q01DX005 (ip), vehicle: Klucel (hydroxypropylcellulose) (HPC)): 99 % of control

COC(=O)c1ccc(OP(=O)(N(C)C)N(C)C)cc1
T/C (dose: 3.12 mg/kg/injection, schedule: Q01DX009 (ip), vehicle: saline with Tween-80): 98 % of control and 97 % of control | T/C (dose: 6.25 mg/kg/injection, schedule: Q01DX009 (ip), vehicle: saline with Tween-80): 96 % of control | T/C (dose: 12.5 mg/kg/injection, schedule: Q01DX009 (ip), vehicle: saline with Tween-80): 104 % of control and 96 % of control

COc1ccc(-n2c3c(c4c(N)ncnc42)CCCC3)cc1
T/C [1]: 105 % of control | T/C [2]: 93 % of control

C=CC1CCC[S+]1CC(=O)OCC (centres undefined)
T/C (dose: 12.5 mg/kg/injection, schedule: Q01DX005 (ip), vehicle: saline with Tween-80): 100 % of control | T/C (dose: 25.0 mg/kg/injection, schedule: Q01DX005 (ip), vehicle: saline with Tween-80): 105 % of control | T/C [3]: 102 % of control and 107 % of control

CC1(C)NC(=S)N(c2ccccc2C(=O)O)C2=C1CN(Cc1ccccc1)CC2
T/C [4]: 100 % of control | T/C [5]: 95 % of control | T/C [6]: 105 % of control

Cn1c(-c2ccccc2)nc(-c2ccccc2)[n+]1[O-]
T/C [7]: 102 % of control | T/C [8]: 96 % of control | T/C [9]: 95 % of control

O=C(c1cc(Cl)c(Cl)c([N+](=O)[O-])c1Cl)C(Cl)Cl
T/C (dose: 25.0 mg/kg/injection, schedule: Q04DX003 (ip), vehicle: Klucel (hydroxypropylcellulose) (HPC)): 104 % of control | T/C (dose: 50.0 mg/kg/injection, schedule: Q04DX003 (ip), vehicle: Klucel (hydroxypropylcellulose) (HPC)): 99 % of control | T/C (dose: 100.0 mg/kg/injection, schedule: Q04DX003 (ip), vehicle: Klucel (hydroxypropylcellulose) (HPC)): 103 % of control

O=c1nc2oc(-c3ccccc3)cn2c(=O)n1-c1ncc(-c2ccccc2)o1
T/C [10]: 97 % of control | T/C [11]: 100 % of control | T/C [12]: 105 % of control

CCC(C(=O)O)C(=O)O.[NH2-].[NH2-].[Pt+2]
T/C (dose: 50.0 mg/kg/injection, schedule: Q01DX001 (ip), vehicle: saline): 152 % of control | T/C (dose: 100.0 mg/kg/injection, schedule: Q01DX001 (ip), vehicle: saline): 175 % of control | T/C (dose: 200.0 mg/kg/injection, schedule: Q01DX001 (ip), vehicle: saline): 189 % of control and 205 % of control

CC(CC(=O)c1ccccc1)=NCCCCN=C(C)CC(=O)c1ccccc1
T/C (dose: 25.0 mg/kg/injection, schedule: Q04DX002 (ip), vehicle: saline with Tween-80): 104 % of control | T/C (dose: 25.0 mg/kg/injection, schedule: Q04DX003 (ip), vehicle: saline with Tween-80): 101 % of control | T/C [3]: 91 % of control | T/C (dose: 50.0 mg/kg/injection, schedule: Q04DX002 (ip), vehicle: saline with Tween-80): 96 % of control | T/C [13]: 95 % of control | T/C [14]: 95 % of control | T/C (dose: 100.0 mg/kg/injection, schedule: Q04DX002 (ip), vehicle: saline with Tween-80): 105 % of control | T/C [15]: 92 % of control | T/C [16]: 88 % of control | T/C (dose: 200.0 mg/kg/injection, schedule: Q04DX002 (ip), vehicle: saline with Tween-80): 98 % of control

Cn1c2c(F)cccc2c(=O)c2c(O)cc3c(c21)C=CC(C)(C)O3
T/C [10]: 96 % of control | T/C [11]: 91 % of control | T/C [12]: 94 % of control

Clc1ccc(/C=N\N=C\c2ccc(Cl)c(Cl)c2)cc1Cl
T/C (dose: 25.0 mg/kg/injection, schedule: Q01DX009 (ip), vehicle: saline with Tween-80): 95 % of control | T/C [17]: 100 % of control | T/C [18]: 110 % of control | T/C [19]: 90 % of control | T/C (dose: 400.0 mg/kg/injection, schedule: Q01DX009 (ip), vehicle: saline with Tween-80): 90 % of control

O=C1OC(c2ccc(F)cc2)CC1CN1CCOCC1 (centres undefined)
T/C [1]: 105 % of control | T/C [2]: 105 % of control | T/C (dose: 240.0 mg/kg/injection, schedule: Q01DX005 (ip), vehicle: saline with Tween-80): 99 % of control

[NH-]C(CCC(N)=O)C(=O)O.[NH-]C(CCC(N)=O)C(=O)O.[Ni+2] (centres undefined)
T/C (dose: 6.25 mg/kg/injection, schedule: Q01DX005 (ip), vehicle: saline): 93 % of control | T/C (dose: 12.5 mg/kg/injection, schedule: Q01DX005 (ip), vehicle: saline): 96 % of control

CC12CC3CC(O)(C1)CC(O)(C3)C2
T/C [4]: 100 % of control | T/C [5]: 100 % of control | T/C [6]: 102 % of control

CC1=Nc2ccccc2S/C1=C(/C)NN
T/C (dose: 100.0 mg/kg/injection, schedule: Q01DX001 (ip), vehicle: saline with Tween-80): 104 % of control | T/C (dose: 200.0 mg/kg/injection, schedule: Q01DX001 (ip), vehicle: saline with Tween-80): 104 % of control | T/C (dose: 400.0 mg/kg/injection, schedule: Q01DX001 (ip), vehicle: saline with Tween-80): 95 % of control

Nc1ccc(S(=O)(=O)c2ccc(NCC(=O)O)cc2)cc1
T/C [17]: 100 % of control | T/C [13]: 100 % of control | T/C [18]: 95 % of control | T/C [15]: 100 % of control | T/C [19]: 86 % of control | T/C (dose: 200.0 mg/kg/injection, schedule: Q04DX003 (ip), vehicle: saline with Tween-80): 100 % of control

COc1ccc2c(c1)NC(O)c1cccn1C2=O (centres undefined)
T/C (dose: 0.1 mg/kg/injection, schedule: Q01DX005 (ip), vehicle: water): 91 % of control | T/C (dose: 0.2 mg/kg/injection, schedule: Q01DX005 (ip), vehicle: water): 91 % of control | T/C (dose: 0.4 mg/kg/injection, schedule: Q01DX005 (ip), vehicle: water): 93 % of control | T/C (dose: 0.8 mg/kg/injection, schedule: Q01DX005 (ip), vehicle: water): 96 % of control | T/C (dose: 1.6 mg/kg/injection, schedule: Q01DX005 (ip), vehicle: water): 102 % of control | T/C (dose: 5.0 mg/kg/injection, schedule: Q01DX005 (ip), vehicle: distilled water + Tween-80): 100 % of control | T/C (dose: 10.0 mg/kg/injection, schedule: Q01DX005 (ip), vehicle: distilled water + Tween-80): 94 % of control | T/C (dose: 20.0 mg/kg/injection, schedule: Q01DX005 (ip), vehicle: distilled water + Tween-80): 100 % of control | T/C (dose: 40.0 mg/kg/injection, schedule: Q01DX005 (ip), vehicle: distilled water + Tween-80): 95 % of control | T/C (dose: 80.0 mg/kg/injection, schedule: Q01DX005 (ip), vehicle: distilled water + Tween-80): 91 % of control

N/C(=N\C(O)C(Cl)(Cl)Cl)SCNC(=O)NCS/C(N)=N/C(O)C(Cl)(Cl)Cl (centres undefined)
T/C [3]: 105 % of control | T/C [14]: 100 % of control | T/C [16]: 95 % of control

O=C(Nc1ccccc1)/C(N=Nc1ccc([N+](=O)[O-])cc1Cl)=N/Nc1ccc([N+](=O)[O-])cc1Cl
T/C [10]: 111 % of control | T/C [11]: 109 % of control

c1ccc(CCNCCN2CCNCC2)cc1
T/C (dose: 60.0 mg/kg/injection, schedule: Q01DX005 (ip), vehicle: saline): 108 % of control | T/C (dose: 120.0 mg/kg/injection, schedule: Q01DX005 (ip), vehicle: saline): 99 % of control

O=[N+]([O-])c1cc(C(F)(F)F)cc([N+](=O)[O-])c1Nc1ccccc1
T/C (dose: 30.0 mg/kg/injection, schedule: Q01DX005 (ip), vehicle: Klucel (hydroxypropylcellulose) (HPC)): 102 % of control | T/C [7]: 107 % of control | T/C [8]: 104 % of control | T/C [9]: 103 % of control

COc1cc(CCN(C)C)c([N+](=O)[O-])cc1OC
T/C (dose: 12.5 mg/kg/injection, schedule: Q01DX009 (ip), vehicle: saline): 90 % of control | T/C (dose: 25.0 mg/kg/injection, schedule: Q01DX009 (ip), vehicle: saline): 89 % of control
